Records with an inconclusive call do not appear. The source made the active and inactive calls.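 The calls were made as follows: active = Compounds that reduce signal, with fitted half-maximal dose at or under twice the top valid tested dose; inconclusive = Poor fit, or flat curve losing 30 to 70% of signal; inactive = Potency past limit, flat within 30%, or opposite direction.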
Test: HEK293T cell cytotoxicity, dose response, cytotoxicity control, ATP luminescence, cherry-pick samples (AID 687005)
Settings: HEK293T viability, ATP luminescence (CellTiter-Glo), 48 h; at 23.5 µM (top of the series)

| SMILES | activity change, negative = cytotoxicity |
| --- | --- |
| C[C@H](CO)N1C[C@H](C)[C@H](CN(C)C(=O)Nc2cccc3ccccc23)Oc2ccc(NC(=O)Cc3ccccc3)cc2CC1=O | 10.3% (inactive) |
| Cc1ccc(S(=O)(=O)N2C[C@@H](O)COC[C@H]3O[C@H](CC(=O)NCc4ccc5c(c4)OCO5)CC[C@@H]32)cc1 | -12.4% (inactive) |
| C[C@H]1CN([C@@H](C)CO)C(=O)c2cc(NC(=O)Nc3ccc(F)cc3)ccc2O[C@@H]1CN(C)S(C)(=O)=O | 2.53% (inactive) |
| COc1ccc(CN(C)C[C@H]2OCCCC[C@@H](C)Oc3ccc(NC(=O)c4ccccc4)cc3C(=O)N([C@H](C)CO)C[C@@H]2C)cc1 | -10.4% (inactive) |
| C/C=C/c1ccc([C@H]2[C@@H](CO)N(C(=O)CC)[C@@H]2CNC(=O)C2CC2)cc1 | 42.4% (inactive) |
| CN1c2ccc(-c3ccc(F)cc3)cc2[C@H]2[C@H](CCN2S(=O)(=O)c2cccc(F)c2)[C@H]1CO | -32.1% (inactive) |
| Cc1ccc(S(=O)(=O)Nc2ccc3c(c2)C(=O)N([C@@H](C)CO)C[C@H](C)[C@H](CN(C)C(=O)Nc2ccc(C(F)(F)F)cc2)O3)cc1 | -1.43% (inactive) |
| Cc1noc(C)c1NC(=O)N(C)C[C@H]1Oc2ccc(NS(=O)(=O)c3cn(C)cn3)cc2CC(=O)N([C@H](C)CO)C[C@H]1C | -32.1% (inactive) |

Same assay, conditions: HEK293T viability, ATP luminescence (CellTiter-Glo), 48 h; at 26 µM (top of the series)

| SMILES | activity change, negative = cytotoxicity |
| --- | --- |
| C[C@@H](NC(=O)C[C@H]1CC[C@@H](NC(=O)Cc2ccccn2)[C@@H](CO)O1)c1ccccc1 | -16.9% (inactive) |
| O=C(c1cccc(F)c1)N1CCCCN2[C@@H](CO)[C@H](c3ccc(-c4ccncc4)cc3)[C@@H]2C1 | 2.55% (inactive) |
| O=C(NC(=S)Nc1ccccc1N1CCCC1)c1ccc([N+](=O)[O-])cc1 | -8.4% (inactive) |
| CNC(=O)C[C@H]1CC[C@H]2[C@H](COc3ccc(NC(=O)Nc4ccccc4)cc3C(=O)N2C)O1 | -20.5% (inactive) |
| COc1ccc(NC(=O)Nc2ccc3c(c2)C(=O)N([C@H](C)CO)C[C@@H](C)[C@H](CN(C)S(=O)(=O)c2ccc(Cl)cc2)OCCCC[C@@H](C)O3)cc1 | -9.56% (inactive) |
| CC(=O)N[C@H]1CC[C@H](CCNC(=O)C2CCC2)O[C@@H]1CO | 10.8% (inactive) |
| O=C(CN1CCOCC1)N1CC[C@@H]2[C@@H](CO)Nc3ccc(-c4ccccc4F)cc3[C@@H]21 | 29% (inactive) |
| O=C(C[C@H]1CC[C@H]2[C@@H](COC[C@@H](O)CN2S(=O)(=O)c2ccc(Oc3ccccc3)cc2)O1)NC1CCC1 | 16.3% (inactive) |
| COc1ccc(NC(=O)CSc2ncnc3c2cnn3CCc2ccccc2)cc1 | -33.3% (inactive) |
| COc1cccc(NC(=S)NC(=O)Cc2ccc(Cl)cc2)c1 | -6.68% (inactive) |
| CCCNC(=O)[C@H]1[C@H](CO)[C@H]2Cn3c(cccc3=O)[C@@H]1N2C(=O)Nc1cc(F)ccc1F | 42.5% (inactive) |
| C[C@@H]1CN([C@@H](C)CO)C(=O)Cc2cc(NC(=O)Nc3cccc4ccccc34)ccc2O[C@@H]1CN(C)S(=O)(=O)c1cccs1 | 153% (inactive) |
| O=C(NCCc1ccccc1)[C@H]1[C@H](CO)[C@H]2Cn3c(cccc3=O)[C@@H]1N2C(=O)C1CCC1 | 7.71% (inactive) |
| CC(C)NC(=O)Nc1ccc2c(c1)CC(=O)N([C@@H](C)CO)C[C@@H](C)[C@@H](CN(C)S(=O)(=O)c1ccc(Cl)cc1)O2 | 6.41% (inactive) |
| CC(=O)N1[C@@H](CO)[C@H](c2ccc(-c3ccccc3)cc2)[C@@H]1CNC(=O)C1CC1 | 13.9% (inactive) |
| CNC[C@@H]1Oc2c(NS(=O)(=O)c3cccs3)cccc2C(=O)N([C@@H](C)CO)C[C@H]1C | 28.1% (inactive) |
| CNC[C@H]1Oc2cc(Br)ccc2S(=O)(=O)N([C@H](C)CO)C[C@H]1C | 37.7% (inactive) |
| CCNC(=O)CN(c1ccccc1)S(=O)(=O)c1ccc(Cl)cc1 | -16.3% (inactive) |
| Cc1ccccc1S(=O)(=O)N[C@H]1CC[C@H](CCNS(=O)(=O)c2cccc(F)c2)O[C@H]1CO | -6.73% (inactive) |
| COc1cccc(CNC(=O)COc2ccc(C(=O)c3ccccc3)cc2)c1 | 10% (inactive) |

| SMILES | activity change, negative = cytotoxicity |
| --- | --- |
| CCCN1C[C@H](C)[C@@H](OC)CN(C)C(=O)c2cc(NC(=O)c3cccc(F)c3)ccc2OC[C@H]1C | 10.2% (inactive) |
| CC(C)NC(=O)Nc1ccc2c(c1)C(=O)N([C@@H](C)CO)C[C@@H](C)[C@@H](CN(C)C(=O)NC(C)C)OCCCC[C@@H](C)O2 | 20.5% (inactive) |
| O=C(Cc1ccccc1)N[C@H]1C=C[C@@H](CC(=O)N2CCOCC2)O[C@H]1CO | 8.54% (inactive) |
| COCCNC(=O)C[C@@H]1C[C@H]2c3cc(NC(=O)C4CCC4)ccc3O[C@H]2[C@@H](CO)O1 | 3.65% (inactive) |
| O=C(c1ccco1)N1N=C(c2cccs2)CC1c1ccc(F)cc1 (stereo not drawn) | -39% (inactive) |
| O=C(C[C@H]1CC[C@H](NC(=O)Nc2ccc(C(F)(F)F)cc2)[C@H](CO)O1)NCc1cccc(F)c1 | 11.3% (inactive) |
| Cc1ccc(C)c(NC(=O)C2(C)CCN2C(=O)C(C)C)c1 (stereo not drawn) | -19.7% (inactive) |
| Cc1ccc(S(=O)(=O)N[C@H]2CC[C@H](CC(=O)NCc3ccccc3F)O[C@H]2CO)cc1 | 8.09% (inactive) |
| CO[C@H]1CC[C@@H]2CCOc3c(C#N)cccc3C(=O)N(C)C[C@@H](OC)[C@@H](C)C(=O)N(C)C[C@@H]1O2 | -16.3% (inactive) |
| CCCNC(C)C(=O)Nc1ccccc1C (stereo not drawn) | -25.6% (inactive) |
| O=C(Oc1ccc2c3c(c(=O)oc2c1)CCCC3)c1ccco1 | -27.5% (inactive) |
| O=C(C[C@@H]1C[C@@H]2c3cc(NC(=O)C4CCC4)ccc3O[C@@H]2[C@H](CO)O1)NCc1cccc(F)c1 | 3.17% (inactive) |
| Cc1cccc(C)c1NC(=O)C(C)N1CCCCC1 (stereo not drawn) | 6.43% (inactive) |
| Cc1noc(C)c1S(=O)(=O)N(C)C[C@@H]1OCCCC[C@@H](C)Oc2ccc(NC(=O)CCCCCC(=O)Nc3ccccc3N)cc2C(=O)N([C@H](C)CO)C[C@@H]1C | 1.87% (inactive) |
| C[C@@H]1CN([C@@H](C)CO)C(=O)c2cc(-c3ccc(C#N)cc3)cnc2O[C@@H]1CN(C)C(=O)Nc1ccc(F)cc1 | 5.67% (inactive) |
| C[C@@H]1CCCCO[C@H](CN(C)Cc2ccncc2)[C@@H](C)CN([C@@H](C)CO)C(=O)c2cc(NC(=O)Nc3ccccc3)ccc2O1 | -7.38% (inactive) |
| Cc1noc(C)c1NC(=O)Nc1cccc2c1O[C@@H](CN(C)S(=O)(=O)c1cn(C)cn1)[C@@H](C)CN([C@@H](C)CO)C2=O | -3.21% (inactive) |
| Cc1noc(C)c1NC(=O)N(C)C[C@H]1Oc2ccc(NC(=O)C3CC3)cc2CC(=O)N([C@@H](C)CO)C[C@H]1C | 0.766% (inactive) |
| COCC(=O)N(C)C[C@H]1Oc2ncc(-c3ccccc3F)cc2C(=O)N([C@@H](C)CO)C[C@H]1C | -32.3% (inactive) |

Same assay, conditions: HEK293T viability, ATP luminescence (CellTiter-Glo), 48 h; at 38 µM (top of the series)

| SMILES | activity change, negative = cytotoxicity |
| --- | --- |
| CC(C)C(=O)N1CCC1(C)C(=O)Nc1ccccc1C(C)(C)C (stereo not drawn) | -4.57% (inactive) |

— PubChem BioAssay AID687005 (Broad Institute, 2013)
